The subject of assay [1] is non-canonical inflammasome. Nature of the assay: IL-1β secretion in macrophages challenged with LPS (B4) (FIG. 4C). Particulars: BT032 20, 100 μM; Pam3Cys priming; LPS 0111:B4 16 h. The assay is classed as cell-based, human. From the text: (§1) In vitro stimulation of human macrophages.
The target in assay [2] is T1, recombinant full length NLRP1 (Homo sapiens, UniProt Q9C000).
T1 sequence (Q9C000 1-1473): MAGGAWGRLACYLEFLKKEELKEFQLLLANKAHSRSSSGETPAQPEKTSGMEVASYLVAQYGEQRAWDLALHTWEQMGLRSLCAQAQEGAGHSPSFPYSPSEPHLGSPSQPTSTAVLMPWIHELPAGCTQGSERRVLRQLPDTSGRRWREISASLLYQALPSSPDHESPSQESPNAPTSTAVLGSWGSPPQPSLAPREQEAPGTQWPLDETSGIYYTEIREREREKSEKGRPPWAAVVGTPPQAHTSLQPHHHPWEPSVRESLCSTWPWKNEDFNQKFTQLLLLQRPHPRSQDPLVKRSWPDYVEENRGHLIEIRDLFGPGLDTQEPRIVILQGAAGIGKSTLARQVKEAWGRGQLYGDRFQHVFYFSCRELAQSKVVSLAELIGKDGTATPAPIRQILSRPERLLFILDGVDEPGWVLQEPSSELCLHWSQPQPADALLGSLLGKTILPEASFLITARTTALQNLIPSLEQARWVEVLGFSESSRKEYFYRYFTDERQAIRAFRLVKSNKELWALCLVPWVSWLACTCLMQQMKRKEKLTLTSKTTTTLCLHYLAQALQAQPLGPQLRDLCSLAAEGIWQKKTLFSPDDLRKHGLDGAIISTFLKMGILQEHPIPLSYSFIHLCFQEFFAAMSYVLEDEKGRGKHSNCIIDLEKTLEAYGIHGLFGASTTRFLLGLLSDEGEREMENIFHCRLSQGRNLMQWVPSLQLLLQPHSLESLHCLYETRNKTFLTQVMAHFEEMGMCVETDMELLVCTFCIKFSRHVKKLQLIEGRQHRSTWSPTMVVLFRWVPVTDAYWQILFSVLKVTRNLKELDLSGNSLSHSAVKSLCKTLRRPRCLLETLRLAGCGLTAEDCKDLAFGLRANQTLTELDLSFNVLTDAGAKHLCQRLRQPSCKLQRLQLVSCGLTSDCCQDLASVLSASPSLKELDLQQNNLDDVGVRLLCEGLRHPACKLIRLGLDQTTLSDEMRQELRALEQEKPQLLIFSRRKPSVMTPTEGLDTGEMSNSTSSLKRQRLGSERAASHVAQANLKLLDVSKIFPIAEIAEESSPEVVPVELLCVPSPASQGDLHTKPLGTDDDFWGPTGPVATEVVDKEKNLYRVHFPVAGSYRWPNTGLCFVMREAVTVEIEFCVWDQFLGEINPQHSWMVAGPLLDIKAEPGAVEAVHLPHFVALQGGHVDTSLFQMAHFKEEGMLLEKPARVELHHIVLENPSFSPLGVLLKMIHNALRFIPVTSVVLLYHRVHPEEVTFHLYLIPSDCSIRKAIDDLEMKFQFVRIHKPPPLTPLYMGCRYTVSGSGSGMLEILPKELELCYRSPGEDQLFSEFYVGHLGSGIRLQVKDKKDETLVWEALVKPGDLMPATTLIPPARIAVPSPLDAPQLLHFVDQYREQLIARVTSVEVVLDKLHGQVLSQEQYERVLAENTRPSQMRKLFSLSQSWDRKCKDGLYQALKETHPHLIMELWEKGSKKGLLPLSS
The experiment in a line: Photo-affinity labelling of recombinant full length NLRP1, anti-PEG immunoblot (FIG. 9E). Type of assay: binding. As to conditions: inferred from photo-affinity probes ADS165, ADS167. The protocol:
FIGS. 9A-9F are a series of panels showing ADS032 (also referred to herein as “BT032”) directly binds to NLRP1 and NLRP3. FIGS. 9A and 9B are chemical structures of ADS165 and ADS167. […] ADS165 was then co-incubated for 20 mins and UV treated for 20 mins to cross-link associated compound and protein. Protein was separated by SDS-PAGE and immunoblotted (IB) with anti-PEG to visualize ADS165-linked protein. FIG. 9D: iBMDM cells stably expressing NLRP3-Flag were treated for 30 mins with ADS165, ADS167 (1 mM) or MCC955 (50 μM) for 30 mins, and irradiated with UV 365 nm for 30 mins. Cells were lysed with buffer and immunoprecipitation (IP) of NLRP3 performed with α-NLRP3 (D4D8T) antibody. Levels of precipitated (IP) and total cellular lysate (Input) NLRP3 were determined by immunoblotting with α-NLRP3 (Cryo-2) antibody. FIG. 9F: NLRP1-Flag was expressed in HEK293T cells (1×10^6) for 20 h and treated with ADS165 (1 mM) for 30 mins where indicated, followed by UV 365 nm for a further 30 mins. Cells were lysed with lysis buffer and […] immunoprecipitated with α-Flag (M2) antibody. Proteins were separated by SDS-PAGE and ADS165-linked NLRP1 identified by immunoblot with a-PEG, while total precipitated NLRP1 visualized by immunoblot with α-NLRP1 and total cell lysate by α-Flag. Data shown is representative of three independent experiments.
Next, it was determined whether ADSO32 could interact with NLRP1. […] To further investigate this interaction, ectopically expressed Flag-tagged NLRP1 was immunoprecipitated from cell lysates pretreated or not with ADS165 and exposed to UV light.

For the next assay, the system named is NLRP1 inflammasome. Nature of the assay: IL-1β secretion in macrophages challenged with L18-MDP (FIG. 7). Type of assay: cell-based, human. As to conditions: 20, 100, 350 μM, L18-MDP 100 μg/mL 16 hours, secreted IL-1β.
Text: as §1

The subject of assay [3] is anisomycin-induced psoriatic dermatitis. Nature of the assay: Anisomycin-induced psoriatic dermatitis, topical treatment of murine ear. On the set-up: species or system C57BL/6 mice. Particulars: mouse, in vivo. The source says: Psoriasis is a chronic inflammatory skin disease characterized by IL-17-mediated immune responses, and p38 is known to be highly activated in the psoriatic epidermis. In this example, a p38 activator, anisomycin, is applied daily to murine skin. The probenecid analogs of the present technology (e.g., BT032) are applied to murine psoriatic models topically or to human psoriatic skin specimens ex vivo. Mice. Eight- to 12-week old female mice are used in this study. All animals are of the C57BL/6 genetic background. Animals are maintained under specific pathogen-free conditions. Anisomycin treatment. Anisomycin solution (2 mg/mL in 99.5% ethanol) is applied to the inner and outer sides of a murine ear once daily at a dosage of 10 μL per side of the ear. Histological analyses. For histologic examination, ear skin samples are fixed with 10% formalin and embedded in paraffin. Sections along the median plane of the ear with a thickness of 5 μm are prepared and subjected to staining with hematoxylin and eosin (H&E). Images of two consecutive microscopic fields of H&E-stained sections are obtained using a digital microscope. Time course changes in ear thickness are measured. Thickness is measured daily before treatment.

As for `CCCN(CCC)S(=O)(=O)c1ccc(-c2ccc(CCCC(=O)O)cc2)cc1` [BT032, 4-(4′-(N,N-dipropylsulfamoyl)-[1,1′-biphenyl]-4-yl)butanoic acid], the “non-canonical inflammasome activity (LPS (B4))” value in assay [1] is listed as “limited impact”. The “direct interaction with NLRP1” value in assay [2] is “directly interacts proximal to the Walker B motif within the NACHT domain”. Also, in the assay on NLRP1 inflammasome, the “NLRP1 (L18-MDP)-induced inflammasome activation” value is given as “dose-dependently inhibited”. Also, the “ear thickness, scaly erythema, and histologic changes induced by anisomycin” value in assay [3] is listed as “attenuated”.

These data come from patent US20260176232A1, “PROBENECID COMPOUNDS FOR THE TREATMENT OF INFLAMMASOME-MEDIATED DERMATOLOGICAL CONDITIONS” (Bacainn Biotherapeutics, Ltd., priority 2022, published 2026).
